{"source": "patent EP0943339A2", "about": "“Method of preventing allograft rejection” (priority 1998, dated 1999)", "system": "acute allograft rejection", "test": "murine cardiac ear pinna model of acute allograft rejection (non-vascularized cardiac tissue transplantation)", "format": "in vivo", "conditions": "for Graft Survival Mean ± Std Dev: monotherapy, day 0 to 17", "description": "In Vivo Murine Cardiac Ear Pinnae Model of Transplatation\n• Methods: A rapid, facile 2-week murine bioassay of non-vascularized cardiac tissue transplantation,t he murine cardiac ear pinna model of acute allograft rejection, was used to evaluate the dose-response relationship of immunosuppressive drugs on allograft rejection. In this model, donor BALB/C (N2^d) neonatal hearts are transplanted into recipient C3H/HeN (H2^k) ear pinna pouches without vacular anastomoses. […] All compounds are given on day 0 to 17 COMPOUND P [(+)-2-[3,4-dihydro(3S,4R)-4-hydroxy-3-(4-phenyl-phenylmethyl)-7-(2H, 1-benzopyran)]cyclopentane carboxylic acid] was given orally in 0.5% Methylcellulose. […] Grafts were assessed by visual examination for contraction on alternate days (from 6 to 18) and graft survival was defined as the post-transplant day on which contractions cease. Efficacy data from day 6 to 18 is presented as mean survival days (±SD) and was analyzed by Log Rank Analysis. Graft survival values were deterined at day 18. […] The studies were performed at Stanford Medical Ceter in a collaborative grant with Randall Morris, MD. […]"}
{"smiles": "O=C(O)C1CCCC1c1ccc2c(c1)OC[C@H](Cc1ccc(-c3ccccc3)cc1)[C@H]2O", "note": "(single isomer, unassigned; (+)) [COMPOUND P]", "values": [{"measurement": "efficacy as a single agent in acute rejection", "setting": "highest dose, 300 mg/kg/d", "value": "significant (p<0.01)"}, {"measurement": "Graft Survival Mean ± Std Dev", "setting": "COMPOUND P 30 mg/kg/d orally, survival assessed to day 18", "value": "11.0 ± 1.1", "unit": "days"}, {"measurement": "Graft Survival Mean ± Std Dev", "setting": "COMPOUND P 100 mg/kg/d orally, survival assessed to day 18", "value": "10.3 ± 0.7", "unit": "days"}, {"measurement": "Graft Survival Mean ± Std Dev", "setting": "COMPOUND P 200 mg/kg/d orally, survival assessed to day 18", "value": "10.3 ± 0.7", "unit": "days"}, {"measurement": "Graft Survival Mean ± Std Dev", "setting": "COMPOUND P 300 mg/kg/d orally, survival assessed to day 18", "value": "11.8 ± 1.1", "unit": "days"}]}
{"smiles": "COc1c(C)c2c(c(O)c1C/C=C(\\C)CCC(=O)O)C(=O)OC2", "note": "[MPA]", "values": [{"measurement": "Graft Survival Mean ± Std Dev", "setting": "MPA 100 mg/kg/d, survival assessed to day 18", "value": "13.6 ± 1.9", "unit": "days"}, {"measurement": "Graft Survival Mean ± Std Dev", "setting": "MPA 150 mg/kg/d, survival assessed to day 18", "value": "16.6 ± 1.9", "unit": "days"}]}
{"smiles": "C=CC[C@@H]1/C=C(\\C)C[C@H](C)C[C@H](OC)[C@H]2O[C@@](O)(C(=O)C(=O)N3CCCC[C@H]3C(=O)O[C@H](/C(C)=C/[C@@H]3CC[C@@H](O)[C@H](OC)C3)[C@H](C)[C@@H](O)CC1=O)[C@H](C)C[C@@H]2OC", "note": "(relative stereo) [FK506, [3S-[3R*[E(1S*,3S*,4S*)], 4S*, 5R*, 8S*, 9E, 12R*, 14R*, 15S*, 16R*, 18S*, 19S*, 26aR*]]-5,6,8,11,12,13,14,15,16,17,18,19,24,25,26,26a-Hexadeachydro-5,19-dihydroxy-3-[2-(4-hydroxy-3-[2-(4-hydroxy-3-methoxycyclohexyl)-1-methyl-ethenyl]-14,16-dimethoxy-4,10,12,18-tetramethyl-8-(2-propenyl)-15,19-epoxy-3H-pyrido[2,1-c][1,4]oxaazacyclotricosine-1,7,20,21(4H,23H)-tetrone]", "values": [{"measurement": "Graft Survival Mean ± Std Dev", "setting": "FK506 0.2 mg/kg/d intraperitoneal, survival assessed to day 18", "value": "11.6 ± 1.3", "unit": "days"}, {"measurement": "Graft Survival Mean ± Std Dev", "setting": "FK506 0.4 mg/kg/d intraperitoneal, survival assessed to day 18", "value": "12.4 ± 0.9", "unit": "days"}, {"measurement": "Graft Survival Mean ± Std Dev", "setting": "FK506 0.6 mg/kg/d intraperitoneal, grafts surviving at day 18 censored", "value": ">16.9 ± 1.8", "unit": "days"}, {"measurement": "Graft Survival Mean ± Std Dev", "setting": "FK506 0.8 mg/kg/d intraperitoneal, grafts surviving at day 18 censored", "value": ">17.8 ± 0.6", "unit": "days"}]}
